“And” between values parts separate entries of the source, which are not always exact repeats. Identical values can stand only once.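 Where inhibition never reached the appropriate level, the endpoint shown equals the highest concentration tested. Otherwise, values were interpolated linearly from a five-concentration, 48-hour dose response in 96-well plates. Here, GI50 denotes the concentration required for 50% inhibition of growth. TGI: concentration producing complete growth inhibition.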
Assays:
Experiment in all cases: NCI tumour cell line growth inhibition, 48 h
[1] = system: EKVX NSCLC
[2] = system: OVCAR-3 ovarian
[3] = system: SF-295 CNS
[4] = system: HCT-15 colon
[5] = system: UACC-62 melanoma
[6] = system: HOP-62 NSCLC
[7] = system: ACHN renal
[8] = system: MCF7 breast

Structure (SMILES): NC12CC3CC(C1)CC(C(=O)O)(C3)C2
- TGI [1]: > 100 µM
- TGI [2]: > 100 µM
- TGI [3]: > 100 µM
- TGI [4]: > 100 µM
- TGI [5]: > 100 µM
- TGI [6]: > 100 µM
- TGI [7]: > 100 µM

Structure (SMILES): O=C(CC1C(=O)NN(c2ccc(Br)cc2)C1=O)c1cc(O)ccc1O (stereo not drawn)
- GI50 [1]: 27.8 µM
- TGI [1]: > 50 µM
- GI50 [2]: 7.41 µM
- TGI [2]: 21.7 µM
- GI50 [3]: 11 µM
- TGI [3]: 29.7 µM
- GI50 [4]: 8.5 µM
- TGI [4]: 20 µM
- GI50 [5]: 12 µM
- TGI [5]: 27.7 µM
- GI50 [8]: 21.2 µM
- TGI [8]: > 50 µM
- GI50 [7]: 14.8 µM
- TGI [7]: 49.4 µM

Structure (SMILES): COc1ccc(-c2nc(-c3nc4ccc(Cl)cc4[nH]3)c3ccccn23)cc1
- GI50 [2]: 2.61 µM
- TGI [2]: 6.69 µM
- GI50 [4]: 3.89 µM
- TGI [4]: 64.3 µM
- GI50 [5]: 4.89 µM
- TGI [5]: 20.9 µM
- GI50 [6]: 1.96 µM
- TGI [6]: 3.76 µM
- GI50 [8]: 3.15 µM
- TGI [8]: 16 µM
- GI50 [7]: 1.86 µM
- TGI [7]: 3.75 µM

Structure (SMILES): COc1ccc2c(c1)[n+](=O)c(C(=O)C/C(=N/OCCCc1ccccc1)C(=O)NC13CC4CC(CC(C4)C1)C3)c(C)n2[O-]
- TGI [1]: > 100 µM
- TGI [2]: > 100 µM
- TGI [3]: > 100 µM
- TGI [4]: > 100 µM
- TGI [5]: > 100 µM
- TGI [6]: > 100 µM
- TGI [7]: > 100 µM

Structure (SMILES): O=C(O)CCSC(=O)Nc1ccc([N+](=O)[O-])cc1
- TGI [1]: > 100 µM
- TGI [2]: > 100 µM
- TGI [3]: > 100 µM
- TGI [4]: > 100 µM
- TGI [6]: > 100 µM
- TGI [7]: > 100 µM

Structure (SMILES): NC(=O)COC(=O)c1c(Cl)nc2sccn12
- TGI [1]: > 100 µM
- TGI [2]: > 62.6 µM
- TGI [3]: > 100 µM
- TGI [4]: > 55.1 µM
- TGI [5]: > 100 µM
- TGI [6]: > 100 µM
- TGI [7]: > 100 µM

Structure (SMILES): N#C/C(=C\c1ccc2ccccc2c1)c1ccccc1
- TGI [2]: 28.3 µM
- TGI [3]: 50.4 µM
- TGI [4]: > 100 µM
- TGI [5]: 36.7 µM
- TGI [6]: 74.6 µM
- TGI [7]: 98.3 µM

Structure (SMILES): NC(=O)NS(=O)(=O)c1ccc(N2N=C(C(F)(F)F)CC2c2cc(C(F)(F)F)cc(C(F)(F)F)c2)cc1 (stereo not drawn)
- GI50 [1]: 2.82 µM
- TGI [1]: 11.3 µM
- GI50 [2]: 1.83 µM
- TGI [2]: 4.12 µM
- GI50 [4]: 2.99 µM
- TGI [4]: 13.6 µM
- GI50 [5]: 10.4 µM
- TGI [5]: 22.7 µM
- GI50 [6]: 6.53 µM
- TGI [6]: 22.4 µM
- GI50 [8]: 1.85 µM
- TGI [8]: 4.86 µM
- GI50 [7]: 3.95 µM
- TGI [7]: 14.9 µM

Structure (SMILES): COc1ccc2c(c1)CCCN2c1c2ccccc2nc2ccccc12
- GI50 [1]: 0.932 µM
- TGI [1]: > 100 µM
- GI50 [2]: 0.275 µM
- TGI [2]: 0.75 µM
- GI50 [3]: 0.281 µM
- TGI [3]: > 100 µM
- GI50 [4]: 0.314 µM
- TGI [4]: 25.6 µM
- GI50 [5]: 0.38 µM
- TGI [5]: 3.54 µM
- GI50 [8]: 0.316 µM
- TGI [8]: 33.2 µM
- GI50 [7]: 0.611 µM
- TGI [7]: > 100 µM

Structure (SMILES): CCCn1c(=S)sc2c1nc(C)n1c(Nc3ccccc3)nnc21
- GI50 [3]: 2.59 µM
- TGI [3]: 19.8 µM
- GI50 [4]: 5.09 µM
- TGI [4]: > 100 µM
- GI50 [5]: 3.09 µM
- TGI [5]: 18.9 µM
- GI50 [6]: 7.15 µM
- TGI [6]: 23.9 µM
- GI50 [8]: 6.31 µM
- TGI [8]: 47.3 µM
- GI50 [7]: 5.05 µM
- TGI [7]: > 100 µM

Structure (SMILES): O=C1c2ccccc2C(=O)N1CCc1ncc[nH]1
- TGI [1]: > 100 µM
- TGI [2]: > 100 µM
- TGI [3]: > 100 µM
- TGI [4]: > 100 µM
- TGI [5]: > 100 µM
- TGI [8]: > 100 µM
- TGI [7]: > 100 µM

Structure (SMILES): CC(=O)OCC1OC(NC(=S)N/N=C2\CC(c3ccccc3)Oc3ccccc32)C(OC(C)=O)C(OC(C)=O)C1OC(C)=O (stereo not drawn)
- TGI [1]: > 100 µM
- TGI [2]: > 100 µM
- TGI [3]: > 100 µM
- TGI [4]: > 100 µM
- TGI [5]: > 100 µM
- TGI [6]: > 100 µM
- TGI [7]: > 100 µM

Structure (SMILES): CC(SC(=S)N1CCOCC1)c1cc2oc(=O)n(C)c2cc1Cl (stereo not drawn)
- TGI [1]: > 100 µM
- TGI [2]: > 100 µM
- TGI [3]: > 100 µM
- TGI [4]: > 100 µM
- TGI [5]: > 100 µM
- TGI [6]: > 100 µM
- TGI [7]: > 100 µM

Structure (SMILES): C/C(O)=C(\N=O)C(=O)Nc1ccc(Cl)cc1Cl
- TGI [1]: > 100 µM
- TGI [2]: > 100 µM
- TGI [3]: > 100 µM
- TGI [4]: > 100 µM
- TGI [5]: > 100 µM
- TGI [6]: > 100 µM
- TGI [7]: > 100 µM

Structure (SMILES): COc1ccc(NC(=O)CC(=O)N/N=C/c2ccc(N(CCC#N)S(C)(=O)=O)cc2)cc1
- TGI [1]: > 100 µM
- TGI [2]: > 100 µM
- TGI [3]: > 100 µM
- TGI [4]: > 100 µM
- TGI [5]: > 100 µM
- TGI [6]: > 100 µM
- TGI [7]: > 100 µM

Structure (SMILES): COc1cc[nH]c1/C=C1\C(=O)Nc2ccc(F)c(C#CC3(O)CCNCC3)c21
- GI50 [2]: 0.35 µM
- TGI [2]: 1.55 µM
- GI50 [3]: 0.287 µM
- TGI [3]: 2.8 µM
- GI50 [4]: 0.139 µM
- TGI [4]: 1.93 µM
- GI50 [5]: 0.16 µM
- TGI [5]: 0.633 µM
- GI50 [6]: 0.261 µM
- TGI [6]: 1.47 µM
- GI50 [8]: 0.111 µM
- TGI [8]: 1.9 µM
- GI50 [7]: 0.0262 µM
- TGI [7]: 2.56 µM

Structure (SMILES): COc1cc(C(=O)CBr)c(OC)cc1C
- TGI [1]: > 100 µM
- TGI [3]: > 100 µM
- TGI [4]: > 100 µM
- TGI [5]: > 100 µM
- TGI [6]: > 100 µM
- TGI [8]: > 100 µM
- TGI [7]: > 100 µM

Structure (SMILES): Cc1c(C(=O)C/C(=N/NC(=O)C[N+](C)(C)C)C(=O)Nc2ccc(Cl)cc2)[n+](=O)c2ccccc2n1O
- TGI [1]: > 100 µM
- TGI [2]: > 100 µM
- TGI [3]: > 100 µM
- TGI [4]: > 100 µM
- TGI [5]: > 100 µM
- TGI [6]: > 100 µM
- TGI [7]: > 100 µM

Structure (SMILES): Cn1c2ccccc2c2ccc3c(c21)C(=O)c1ccccc1C3=O
- TGI [1]: > 100 µM
- TGI [2]: 26.8 µM
- TGI [3]: 42 µM
- TGI [4]: 50.2 µM
- TGI [5]: 38.3 µM
- TGI [6]: 45.5 µM
- TGI [7]: 69.2 µM

Structure (SMILES): O=C(O)C(CS)Nc1c2ccccc2nc2ccccc12 (stereo not drawn)
- TGI [1]: > 100 µM
- TGI [2]: > 100 µM
- TGI [3]: > 100 µM
- TGI [4]: > 100 µM
- TGI [7]: > 100 µM

Structure (SMILES): CC(=O)O[C@H]1C(=O)[C@@]2(C)C(C(OC(=O)c3ccccc3)[C@]3(O)CC(OC(=O)[C@H](OC(=O)CCC(=O)O)C(NC(=O)c4ccccc4)c4ccccc4)C(C)=C1C3(C)C)C1(OC(C)=O)COC1C[C@@H]2O (stereo partly drawn)
- GI50 [1]: 0.121 µM and 0.875 µM
- TGI [1]: > 100 µM
- TGI [2]: 1.76 µM and 0.459 µM
- GI50 [3]: 0.0471 µM and 0.18 µM
- TGI [3]: 2.27 µM
- TGI [4]: > 100 µM
- GI50 [6]: < 0.0175 µM and 0.0835 µM
- TGI [6]: > 100 µM
- TGI [8]: > 100 µM
- GI50 [7]: 0.19 µM and 0.821 µM
- TGI [7]: > 100 µM

Structure (SMILES): CCCC1N2CCCCC2[C@@H]2c3[nH]c4ccccc4c3CCN12 (stereo partly drawn)
- TGI [1]: > 100 µM
- TGI [2]: > 100 µM
- TGI [3]: > 100 µM
- TGI [4]: > 100 µM
- TGI [5]: > 100 µM
- TGI [6]: > 100 µM
- TGI [7]: > 100 µM

Structure (SMILES): O=C(CC1(O)C(=O)Nc2c(Cl)ccc(Cl)c21)c1ccc(F)cc1 (stereo not drawn)
- TGI [1]: > 100 µM
- TGI [2]: > 100 µM
- TGI [3]: > 100 µM
- TGI [4]: > 100 µM
- TGI [6]: > 100 µM
- TGI [7]: > 100 µM
